Measurements: patent US10821115B2, “Compounds that inhibit Mcl-1 protein” (priority 2017, dated 2020)
Like-named read-outs stand apart in the source and are kept apart here.

Columns and labels:
[1] = system: human multiple myeloma cell line, OPM-2; test: Cell viability assay (OPM-2 10 FBS), CellTiter-Glo; type: cell-based
Method in brief: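 Steps: plate cells at 3000/well in 10% FBS growth medium, add serially diluted compound, incubate 16 h at 37 °C with 5% CO2, add detection reagent and read luminescence after 25 min. A 4-parameter logistic model gives IC50.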

[2] = target: recombinant human Mcl-1 (residues 171-327) / Bim interaction (Homo sapiens (Human), UniProt Q07820); test: biochemical; type: binding; conditions: read-out: Mcl-1 HTRF IC50
recombinant human Mcl-1 (residues 171-327) / Bim interaction, sequence (Q07820 171-327): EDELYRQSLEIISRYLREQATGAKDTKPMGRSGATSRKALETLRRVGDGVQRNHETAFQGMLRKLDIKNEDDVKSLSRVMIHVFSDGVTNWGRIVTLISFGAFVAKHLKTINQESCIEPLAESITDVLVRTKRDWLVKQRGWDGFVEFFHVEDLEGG

[3] = Homo sapiens, OPM-2, 16 h, read-out: OPM-2 10% FBS IC50 IP, OPM-2 cells, 10% FBS, 16 h, CellTiter-Glo
[4] = TR-FRET, Mcl-1(171-327) / biotin-Bim (51-76)

Row | Compound | IC50 [1, 3] [nM] | IC50 [2, 4] [nM] | IC50 ([1]; read-out: OPM-2 10% FBS IC50 IP, OPM-2 cells, 10% FBS, 16 h incubation) [nM] | IC50 ([2]; 0.1 nM Mcl-1(171-327), 0.05 nM biotin-Bim (51-76)) [nM]
1 | CO[C@@]1(Cc2nc(CO)c(C)o2)/C=C/C[C@H](C)[C@@H](C)S(=O)(=O)NC(=O)c2ccc3c(c2)N(C[C@@H]2CC[C@H]21)C[C@@]1(CCCc2cc(Cl)ccc21)CO3 [Example 100584, (1S,3′R,6′R,7′S,8′E,11′S,12′R)-6-chloro-7′-((4-(hydroxymethyl)-5-methyl-1,3-oxazol-2-yl)methyl)-7′-methoxy-11′,12′-dimethyl-3,4-dihydro-2H,15′H-spiro[naphthalene-1,22′-[20]oxa[13]thia[1,14]diazatetracyclo [14.7.2.0~3,6~.0~19,24~]pentacosa[8,16,18,24]tetraen]-15′-one 13′,13′-dioxide] | 349 | 0.139 | – | –
2 | COCc1nc(C[C@]2(OC)/C=C/C[C@H](C)[C@@H](C)S(=O)(=O)NC(=O)c3ccc4c(c3)N(C[C@@H]3CC[C@H]32)C[C@@]2(CCCc3cc(Cl)ccc32)CO4)oc1C [Example 100585, (1S,3′R,6′R,7′S,8′E,11′S,12′R)-6-chloro-7′-methoxy-7′-((4-(methoxymethyl)-5-methyl-1,3-oxazol-2-yl)methyl)-11′,12′-dimethyl-3,4-dihydro-2H,15′H-spiro[naphthalene-1,22′-[20]oxa[13]thia[1,14]diazatetracyclo [14.7.2.0~3,6~.0~19,24~]pentacosa[8,16,18,24]tetraen]-15′-one 13′,13′-dioxide] | 696 | 0.057 | – | –
3 | CO[C@@]1(Cc2nc(CN(C)C)c(C)o2)/C=C/C[C@H](C)[C@@H](C)S(=O)(=O)NC(=O)c2ccc3c(c2)N(C[C@@H]2CC[C@H]21)C[C@@]1(CCCc2cc(Cl)ccc21)CO3 [Example 100586, (1S,3′R,6′R,7′S,8′E,11′S,12′R)-6-chloro-7′-((4-((dimethylamino)methyl)-5-methyl-1,3-oxazol-2-yl)methyl)-7′-methoxy-11′,12′-dimethyl-3,4-dihydro-2H,15′H-spiro[naphthalene-1,22′-[20]oxa[13]thia[1,14]diazatetracyclo [14.7.2.0~3,6~.0~19,24~]pentacosa[8,16,18,24]tetraen]-15′-one 13′,13′-dioxide] | 453 | 0.074 | – | –
4 | CO[C@@]1(Cc2nc(CN3CCOCC3)c(C)o2)/C=C/C[C@H](C)[C@@H](C)S(=O)(=O)NC(=O)c2ccc3c(c2)N(C[C@@H]2CC[C@H]21)C[C@@]1(CCCc2cc(Cl)ccc21)CO3 [Example 100587, (1S,3′R,6′R,7′S,8′E,11′S,12′R)-6-chloro-7′-methoxy-11′,12′-dimethyl-7′-((5-methyl-4-(4-morpholinylmethyl)-1,3-oxazol-2-yl)methyl)-3,4-dihydro-2H,15′H-spiro[naphthalene-1,22′-[20]oxa[13]thia[1,14]diazatetracyclo [14.7.2.0~3,6~.0~19,24~]pentacosa[8,16,18,24]tetraen]-15′-one 13′,13′-dioxide] | 177 | 0.136 | – | –
5 | CO[C@@]1(COCCN2CCOCC2)/C=C/C[C@H](C)[C@@H](C)S(=O)(=O)NC(=O)c2ccc3c(c2)N(C[C@@H]2CC[C@H]21)C[C@@]1(CCCc2cc(Cl)ccc21)CO3 [Example 100590, (1S,3′R,6′R,7′S,8′E,11′S,12′R)-6-chloro-7′-methoxy-11′,12′-dimethyl-7′-((2-(4-morpholinyl)ethoxy)methyl)-3,4-dihydro-2H,15′H-spiro[naphthalene-1,22′-[20]oxa[13]thia[1,14]diazatetracyclo [14.7.2.0~3,6~.0~19,24~]pentacosa[8,16,18,24]tetraen]-15′-one 13′,13′-dioxide] | 501 | 0.086 | – | –
6 | CO[C@]1(CCN2CCN3CCCC[C@@H]3C2)/C=C/C[C@H](C)[C@@H](C)S(=O)(=O)NC(=O)c2ccc3c(c2)N(C[C@@H]2CC[C@H]21)C[C@@]1(CCCc2cc(Cl)ccc21)CO3 [Example 100591, (1S,3′R,6′R,7′R,8′E,11′S,12′R)-6-chloro-7′-methoxy-11′,12′-dimethyl-7′-(2-((9aR)-octahydro-2H-pyrido[1,2-a]pyrazin-2-yl)ethyl)-3,4-dihydro-2H,15′H-spiro[naphthalene-1,22′-[20]oxa[13]thia[1,14]diazatetracyclo [14.7.2.0~3,6~.0~19,24~]pentacosa[8,16,18,24]tetraen]-15′-one 13′,13′-dioxide] | 60 | 0.075 | – | –
7 | CO[C@]1(CCN2CCN3CCCC[C@@H]3C2)CCC[C@H](C)[C@@H](C)S(=O)(=O)NC(=O)c2ccc3c(c2)N(C[C@@H]2CC[C@H]21)C[C@@]1(CCCc2cc(Cl)ccc21)CO3 [Example 100592, (1S,3′R,6′R,7′S,11′S,12′R)-6-chloro-7′-methoxy-11′,12′-dimethyl-7′-(2-((9aR)-octahydro-2H-pyrido[1,2-a]pyrazin-2-yl)ethyl)-3,4-dihydro-2H,15′H-spiro[naphthalene-1,22′-[20]oxa[13]thia[1,14]diazatetracyclo [14.7.2.0~3,6~.0~19,24~]pentacosa[16,18,24]trien]-15′-one 13′,13′-dioxide] | 139 | 0.275 | – | –
8 | CO[C@]1(COCCN2CCOCC2)/C=C/C[C@H](C)[C@@H](C)S(=O)(=O)NC(=O)c2ccc3c(c2)N(C[C@@H]2CC[C@H]21)C[C@@]1(CCCc2cc(Cl)ccc21)CO3 [Example 100594, (1S,3′R,6′R,7′R,8′E,11′S,12′R)-6-chloro-7′-methoxy-11′,12′-dimethyl-7′-((2-(4-morpholinyl)ethoxy)methyl)-3,4-dihydro-2H,15′H-spiro[naphthalene-1,22′-[20]oxa[13]thia[1,14]diazatetracyclo [14.7.2.0~3,6~.0~19,24~]pentacosa[8,16,18,24]tetraen]-15′-one 13′,13′-dioxide] | 241 | 0.143 | – | –
9 | CCCO[C@]1(C=O)/C=C/C[C@H](C)[C@@H](C)S(=O)(=O)NC(=O)c2ccc3c(c2)N(C[C@@H]2CC[C@H]21)C[C@@]1(CCCc2cc(Cl)ccc21)CO3 [Example 100602, (1S,3′R,6′R,7′R,8′E,11′S,12′R)-6-chloro-11′,12′-dimethyl-15′-oxo-7′-propoxy-3,4-dihydro-2H-spiro[naphthalene-1,22′-[20]oxa[13]thia[1,14]diazatetracyclo [14.7.2.0~3,6~.0~19,24~]pentacosa[8,16,18,24]tetraene]-7′-carbaldehyde 13′,13′-dioxide] | 2330 | 0.8 | – | –
10 | CC(C)CO[C@]1(C=O)/C=C/C[C@H](C)[C@@H](C)S(=O)(=O)NC(=O)c2ccc3c(c2)N(C[C@@H]2CC[C@H]21)C[C@@]1(CCCc2cc(Cl)ccc21)CO3 [Example 100603, (1S,3′R,6′R,7′R,8′E,11′S,12′R)-6-chloro-11′,12′-dimethyl-7′-(2-methylpropoxy)-15′-oxo-3,4-dihydro-2H-spiro[naphthalene-1,22′-[20]oxa[13]thia[1,14]diazatetracyclo [14.7.2.0~3,6~.0~19,24~]pentacosa[8,16,18,24]tetraene]-7′-carbaldehyde 13′,13′-dioxide] | 1570 | 0.651 | – | –
11 | (1 S,3′R,6′R,7′R,8′E,11′S,12′R)-6-chloro-7′-methoxy-11′-methyl-12′-(2-(((2-methyl-2-propanyl)(diphenyl)silyl)oxy)ethyl)-7′-((9aR)-octahydro-2H-pyrido[1,2-a]pyrazin-2-ylmethyl)-3,4-dihydro-2H, 15′H-spiro[naphthalene-1,22′-[20]oxa[13]thia[1,14]diazatetracyclo[14.7.2.0-3,6˜.0˜19,24˜]pentacosa[8,16,18,24]tetraen]-15′-one 13′,13′-dioxide [Example 359] | – | – | > 33300 | 2.08
